Data from PubChem BioAssay AID248 (DTP/NCI, 2004).
Values joined by “and” are separate entries in the source; they are usually repeats but may differ in a detail not shown here. Identical values can stand only once. Inconclusive results and toxic doses are left out. Rule as the data show it: active = T/C of 150% or more; inactive = T/C below 125%.

System: L1210 leukemia ip in BDF1 mice, survival T/C
Test: NCI In Vivo Anticancer Drug Screen. Data for tumor model L1210 Leukemia (intraperitoneal) in B6D2F1 (BDF1) mice
Conditions: endpoint: mean survival time, higher = longer survival
In short: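 Each compound was tested against a transplantable tumor grown in mice. The endpoint was survival, with treated animals benchmarked against vehicle controls as a simple ratio.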

[1] = dose: 100.0 mg/kg/injection, schedule: Q01DX009 (ip), vehicle: saline with Tween-80
[2] = dose: 200.0 mg/kg/injection, schedule: Q01DX009 (ip), vehicle: saline with Tween-80
[3] = dose: 100.0 mg/kg/injection, schedule: Q04DX002 (ip), vehicle: Klucel (hydroxypropylcellulose) (HPC)
[4] = dose: 200.0 mg/kg/injection, schedule: Q04DX002 (ip), vehicle: Klucel (hydroxypropylcellulose) (HPC)
[5] = dose: 400.0 mg/kg/injection, schedule: Q04DX002 (ip), vehicle: Klucel (hydroxypropylcellulose) (HPC)
[6] = dose: 100.0 mg/kg/injection, schedule: Q04DX003 (ip), vehicle: saline with Tween-80
[7] = dose: 200.0 mg/kg/injection, schedule: Q04DX003 (ip), vehicle: saline with Tween-80
[8] = dose: 25.0 mg/kg/injection, schedule: Q01DX009 (ip), vehicle: saline
[9] = dose: 50.0 mg/kg/injection, schedule: Q01DX009 (ip), vehicle: saline with Tween-80
[10] = dose: 50.0 mg/kg/injection, schedule: Q01DX009 (ip), vehicle: saline
[11] = dose: 100.0 mg/kg/injection, schedule: Q04DX003 (ip), vehicle: saline
[12] = dose: 100.0 mg/kg/injection, schedule: Q04DX003 (ip), vehicle: Klucel (hydroxypropylcellulose) (HPC)
[13] = dose: 200.0 mg/kg/injection, schedule: Q04DX003 (ip), vehicle: Klucel (hydroxypropylcellulose) (HPC)
[14] = dose: 400.0 mg/kg/injection, schedule: Q04DX003 (ip), vehicle: Klucel (hydroxypropylcellulose) (HPC)
[15] = dose: 200.0 mg/kg/injection, schedule: Q04DX003 (ip), vehicle: saline

Measured: T/C

O=S(=O)(NC1CCc2ccccc21)c1ccccc1 (stereo not given)
inactive: [1] 95 % of control | [2] 90 % of control

CC(C)CNCc1cc([N+](=O)[O-])ccc1O
inactive: dose: 75.0 mg/kg/injection, schedule: Q01DX001 (ip), vehicle: saline 100 % of control | dose: 150.0 mg/kg/injection, schedule: Q01DX001 (ip), vehicle: saline 97 % of control | dose: 300.0 mg/kg/injection, schedule: Q01DX001 (ip), vehicle: saline 94 % of control

CSCCOP(=O)(N(C)C)N(C)C
inactive: [3] 103 % of control | [4] 103 % of control | [5] 88 % of control

O=C(O)c1ccccc1N=Cc1ccccc1O.[Co]
inactive: dose: 100.0 mg/kg/injection, schedule: Q01DX001 (ip), vehicle: other 102 % of control | dose: 200.0 mg/kg/injection, schedule: Q01DX001 (ip), vehicle: other 112 % of control

CC(=O)[O][Sb]([O]C(C)=O)([c]1ccccc1)([c]1ccccc1)[c]1ccccc1
inactive: dose: 100.0 mg/kg/injection, schedule: Q04DX002 (ip), vehicle: saline with Tween-80 96 % of control | dose: 200.0 mg/kg/injection, schedule: Q04DX002 (ip), vehicle: saline with Tween-80 96 % of control | dose: 400.0 mg/kg/injection, schedule: Q04DX002 (ip), vehicle: saline with Tween-80 96 % of control

C=Cc1cnc(N)nc1-c1ccccc1
inactive: [6] 90 % of control | [7] 105 % of control | dose: 400.0 mg/kg/injection, schedule: Q04DX003 (ip), vehicle: saline with Tween-80 97 % of control

O=C(O)CCC(=O)CCC(=O)O
inactive: dose: 100.0 mg/kg/injection, schedule: Q01DX009 (ip), vehicle: other 95 % of control | dose: 200.0 mg/kg/injection, schedule: Q01DX009 (ip), vehicle: other 106 % of control | dose: 400.0 mg/kg/injection, schedule: Q01DX009 (ip), vehicle: other 106 % of control

CC(C)CC(CC(C)C)NCC(C)OC(=O)c1ccc(N)cc1 (stereo not given)
inactive: dose: 12.5 mg/kg/injection, schedule: Q01DX009 (ip), vehicle: saline with Tween-80 96 % of control and 104 % of control | dose: 12.5 mg/kg/injection, schedule: Q04DX003 (ip), vehicle: saline with Tween-80 92 % of control | dose: 25.0 mg/kg/injection, schedule: Q01DX009 (ip), vehicle: saline with Tween-80 102 % of control and 105 % of control | [8] 98 % of control | dose: 25.0 mg/kg/injection, schedule: Q04DX003 (ip), vehicle: saline with Tween-80 104 % of control | dose: 25.0 mg/kg/injection, schedule: Q04DX003 (ip), vehicle: saline 100 % of control | [9] 96 % of control and 106 % of control | [10] 100 % of control | dose: 50.0 mg/kg/injection, schedule: Q04DX003 (ip), vehicle: saline with Tween-80 93 % of control | dose: 50.0 mg/kg/injection, schedule: Q04DX003 (ip), vehicle: saline 96 % of control | dose: 75.0 mg/kg/injection, schedule: Q01DX001 (ip), vehicle: other 92 % of control | dose: 100.0 mg/kg/injection, schedule: Q01DX009 (ip), vehicle: saline 88 % of control | [11] 102 % of control and 91 % of control

Nc1ccccc1C(=O)N/N=C/c1cccc(O)c1
inactive: [3] 98 % of control | [4] 103 % of control | [5] 113 % of control

C[n+]1cccc2cc(Br)ccc21
inactive: dose: 5.0 mg/kg/injection, schedule: Q01DX001 (ip), vehicle: other 100 % of control | dose: 10.0 mg/kg/injection, schedule: Q01DX001 (ip), vehicle: other 107 % of control | dose: 20.0 mg/kg/injection, schedule: Q01DX001 (ip), vehicle: other 111 % of control | dose: 40.0 mg/kg/injection, schedule: Q01DX001 (ip), vehicle: other 105 % of control

CCOC(=O)Cc1cnc(SC)nc1Cl
inactive: [9] 98 % of control | [1] 91 % of control | [6] 92 % of control | [2] 88 % of control | [7] 92 % of control

Cc1c2ccccc2nc(CNC2CCCCC2)[n+]1[O-]
inactive: dose: 12.5 mg/kg/injection, schedule: Q01DX001 (ip), vehicle: saline 98 % of control | dose: 25.0 mg/kg/injection, schedule: Q01DX001 (ip), vehicle: saline 97 % of control | dose: 50.0 mg/kg/injection, schedule: Q01DX001 (ip), vehicle: saline 90 % of control

CC(=O)Nc1ccc(-c2ccccc2)cc1
inactive: dose: 100.0 mg/kg/injection, schedule: Q01DX001 (ip), vehicle: Klucel (hydroxypropylcellulose) (HPC) 99 % of control | [1] 110 % of control | dose: 200.0 mg/kg/injection, schedule: Q01DX001 (ip), vehicle: Klucel (hydroxypropylcellulose) (HPC) 99 % of control | [2] 86 % of control

Cc1ccc(C)c(OS(=O)(=O)c2ccc([N+](=O)[O-])cc2)c1
inactive: dose: 100.0 mg/kg/injection, schedule: Q01DX009 (ip), vehicle: Klucel (hydroxypropylcellulose) (HPC) 98 % of control | [12] 100 % of control | dose: 200.0 mg/kg/injection, schedule: Q01DX009 (ip), vehicle: Klucel (hydroxypropylcellulose) (HPC) 92 % of control | [13] 91 % of control | dose: 400.0 mg/kg/injection, schedule: Q01DX009 (ip), vehicle: Klucel (hydroxypropylcellulose) (HPC) 97 % of control | [14] 89 % of control

CCC(N)CC
inactive: dose: 75.0 mg/kg/injection, schedule: Q01DX009 (ip), vehicle: saline 104 % of control | [11] 105 % of control | dose: 150.0 mg/kg/injection, schedule: Q01DX009 (ip), vehicle: saline 96 % of control and 100 % of control | [15] 103 % of control

CC(=O)NC1C(OS(=O)(=O)c2ccc(C)cc2)C(NC(C)=O)C(OC(C)=O)C(OC(C)=O)C1OC(C)=O (stereo not given)
inactive: [1] 102 % of control | [2] 109 % of control | dose: 400.0 mg/kg/injection, schedule: Q01DX009 (ip), vehicle: saline with Tween-80 100 % of control

c1ccc(CC23CCCCC2N3)cc1 (stereo not given)
inactive: [9] 95 % of control

NC(=O)C1C2C=CC(O2)C1C(=O)O (stereo not given)
inactive: dose: 12.5 mg/kg/injection, schedule: Q04DX002 (ip), vehicle: saline 111 % of control | dose: 25.0 mg/kg/injection, schedule: Q04DX002 (ip), vehicle: saline 97 % of control | dose: 50.0 mg/kg/injection, schedule: Q04DX002 (ip), vehicle: saline 103 % of control

O=c1oc(-c2cc([N+](=O)[O-])ccc2Cl)nc2ccccc12
inactive: [6] 100 % of control | [7] 93 % of control

COc1ccc2c(c1)CSC(c1ccccc1)C2=O (stereo not given)
inactive: [3] 105 % of control | [4] 97 % of control | [5] 90 % of control

COC(=O)C(CCSC)NC(=O)CNC(=O)OCc1ccccc1 (stereo not given)
inactive: [12] 99 % of control | [13] 97 % of control | [14] 92 % of control

OC(c1cc2ccc(C(F)(F)F)cc2c2cc(C(F)(F)F)ccc12)C1CCCCN1 (stereo not given)
inactive: dose: 12.5 mg/kg/injection, schedule: Q01DX009 (ip), vehicle: saline 93 % of control | [8] 103 % of control | [10] 108 % of control

NC(N)=Nc1ccccc1 (tested in a mixture with another compound)
inactive: [11] 100 % of control | [15] 100 % of control

CCSCCC#N
inactive: dose: 100.0 mg/kg/injection, schedule: Q04DX002 (ip), vehicle: saline 103 % of control | dose: 200.0 mg/kg/injection, schedule: Q04DX002 (ip), vehicle: saline 109 % of control

CC(C)CCCC(C)C1CCC2C3CC=C4CC(OC(=O)C(Cl)(Cl)Cl)CCC4(C)C3CCC12C (stereo not given)
inactive: dose: 40.0 mg/kg/injection, schedule: Q01DX009 (sc), vehicle: steriod suspending solution 94 % of control | dose: 50.0 mg/kg/injection, schedule: Q04DX003 (sc), vehicle: steriod suspending solution 98 % of control | dose: 75.0 mg/kg/injection, schedule: Q01DX009 (sc), vehicle: steriod suspending solution 101 % of control | dose: 100.0 mg/kg/injection, schedule: Q04DX003 (sc), vehicle: steriod suspending solution 101 % of control | dose: 150.0 mg/kg/injection, schedule: Q01DX009 (sc), vehicle: steriod suspending solution 95 % of control | dose: 200.0 mg/kg/injection, schedule: Q04DX003 (sc), vehicle: steriod suspending solution 108 % of control

CNP(Br)(c1ccccc1)(c1ccccc1)c1ccccc1
inactive: dose: 10.0 mg/kg/injection, schedule: Q01DX001 (ip), vehicle: saline 101 % of control
